Measurements taken from US9963448B2, “Bicyclic inhibitors of PAD4” (Padlock Therapeutics, Inc., priority 2015, dated 2018).
Structures can show the parent of a compound that is named as a salt. Where two headings read alike, the source gives them in different places.

Assays:
mPAD4 = mPAD4 (Mus musculus, UniProt Q9Z183); test: mPAD4 RFMS PAD4 inhibition assay; assay type: biochemical; conditions: mPAD4, RFMS readout;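 for mPAD4 RFMS pIC50: grade E means pIC50 at most 4 and F means pIC50 4.0 to 5.0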
Protocol: (§1) Compounds of the present invention were assayed as inhibitors of PAD4 using the assay protocol described below.
(§2) Compound stock solutions were stored at RT. […] Final assay conditions were as follows:
(§3) Total incubation time: 65 mins at 37° C.
(§4) Stop solution: 40 μl 5% TCA in ACN
(§5) The compound numbers correspond to the compound numbers in Table 1. […] The term pIC50=−log(IC50). […] “NA” stands for “not assayed.”

hPAD4 = hPAD4 (Homo sapiens, UniProt Q9UM07); test: hPAD4 RFMS (RapidFire mass spectrometry) PAD4 inhibition assay; assay type: biochemical; conditions: hPAD4 enzyme, RFMS readout;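 for hPAD4 RFMS pIC50: grade E means pIC50 at most 4 and F means pIC50 4.0 to 5.0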
Protocol: as §1, §2, §3, §4, §5

[1] = pIC50=−log(IC50), read-out: mPAD4 RFMS pIC50 (converted)
[2] = pIC50=−log(IC50), read-out: hPAD4 RFMS pIC50 (converted)

mPAD4, sequence (Q9Z183 whole entry): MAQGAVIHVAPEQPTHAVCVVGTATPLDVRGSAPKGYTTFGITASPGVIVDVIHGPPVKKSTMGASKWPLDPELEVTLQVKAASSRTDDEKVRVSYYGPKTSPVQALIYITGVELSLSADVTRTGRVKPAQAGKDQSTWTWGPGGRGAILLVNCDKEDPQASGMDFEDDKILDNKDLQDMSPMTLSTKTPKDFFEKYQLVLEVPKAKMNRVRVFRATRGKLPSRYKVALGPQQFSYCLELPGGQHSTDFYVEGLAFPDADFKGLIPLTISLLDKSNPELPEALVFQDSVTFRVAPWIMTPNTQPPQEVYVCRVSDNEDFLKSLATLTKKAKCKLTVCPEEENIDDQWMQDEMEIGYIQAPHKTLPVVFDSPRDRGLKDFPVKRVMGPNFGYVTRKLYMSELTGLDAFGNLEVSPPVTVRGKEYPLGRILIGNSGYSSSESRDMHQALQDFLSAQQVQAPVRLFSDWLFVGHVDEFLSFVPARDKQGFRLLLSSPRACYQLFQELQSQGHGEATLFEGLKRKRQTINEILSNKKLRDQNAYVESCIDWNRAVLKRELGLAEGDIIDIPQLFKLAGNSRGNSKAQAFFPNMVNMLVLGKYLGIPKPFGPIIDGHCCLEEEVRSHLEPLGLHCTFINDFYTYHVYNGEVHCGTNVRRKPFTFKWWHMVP
hPAD4, sequence (Q9UM07 whole entry): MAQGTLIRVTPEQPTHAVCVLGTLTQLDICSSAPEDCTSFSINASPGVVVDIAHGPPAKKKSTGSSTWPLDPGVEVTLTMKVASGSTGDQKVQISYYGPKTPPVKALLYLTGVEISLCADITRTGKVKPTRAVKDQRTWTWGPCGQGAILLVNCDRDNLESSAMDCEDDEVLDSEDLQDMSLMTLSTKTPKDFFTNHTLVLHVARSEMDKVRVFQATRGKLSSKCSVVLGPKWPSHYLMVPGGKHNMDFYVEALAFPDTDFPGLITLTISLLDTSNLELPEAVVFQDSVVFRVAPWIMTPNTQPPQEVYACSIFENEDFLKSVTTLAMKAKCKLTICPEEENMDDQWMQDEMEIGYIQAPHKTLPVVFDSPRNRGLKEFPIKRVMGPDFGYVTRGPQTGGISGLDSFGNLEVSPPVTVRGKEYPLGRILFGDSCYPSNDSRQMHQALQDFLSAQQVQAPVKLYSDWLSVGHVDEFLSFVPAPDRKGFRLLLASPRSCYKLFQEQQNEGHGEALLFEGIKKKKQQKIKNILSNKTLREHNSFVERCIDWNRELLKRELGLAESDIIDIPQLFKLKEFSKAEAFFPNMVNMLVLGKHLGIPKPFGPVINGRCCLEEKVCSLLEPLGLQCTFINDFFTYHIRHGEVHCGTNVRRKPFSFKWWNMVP

Row | SMILES | IC50 (mPAD4; [1]) [nM] | IC50 (mPAD4; read-out: mPAD4 RFMS IC50) [nM] | IC50 (hPAD4; [2]) [nM] | IC50 (hPAD4; read-out: hPAD4 RFMS IC50) [nM]
1 | COc1cc(C(=O)N2C[C@@H](N)C[C@H](F)C2)cc2nc(-c3cc4cccnc4n3CC3(C)CC3)n(C)c12 [Compound I-93, (3S,5S)-5-Fluoro-1-(7-methoxy-1-methyl-2-{1-[(1-methylcyclopropyl)methyl]-1H-pyrrolo[2,3-b]pyridin-2-yl}-1H-1,3-benzodiazole-5-carbonyl)piperidin-3-amine] | 1000 to 10000 | 1000 to 5000 | 1000 to 10000 | 1000 to 5000
2 | COc1cc(C(=O)N2CC3(CCOC[C@@H]3N)C2)cc2nc(-c3cc4cccnc4n3CC3CC3)n(C)c12 [Compound I-95] | 10000 to 100000 | > 10000 | 10000 to 100000 | > 10000
3 | COc1cc(C(=O)N2CCCC3(CNC3)C2)cc2nc(-c3cc4cccnc4n3CC3CC3)n(C)c12 [Compound I-100] | > 100000 | > 10000 | > 100000 | > 10000
4 | COc1cc(C(=O)N2CCC[C@@H](N)C2)cc2nc(-c3cc4cccnc4n3[C@H](C)C3CC3)n(C)c12 [Compound I-101, (3R)-1-(2-{1-[(1R)-1-cyclopropylethyl]-1H-pyrrolo[2,3-b]pyridin-2-yl}-7-methoxy-1-methyl-1H-1,3-benzodiazole-5-carbonyl)piperidin-3-amine] | 1000 to 10000 | 1000 to 5000 | 1000 to 10000 | 1000 to 5000
5 | COc1cc(C(=O)N2CCC[C@@H](N)C2)cc2nc(-c3cc4cccnc4n3[C@@H](C)C3CC3)n(C)c12 [Compound I-102, (3R)-1-(2-{1-[(1S)-1-cyclopropylethyl]-1H-pyrrolo[2,3-b]pyridin-2-yl}-7-methoxy-1-methyl-1H-1,3-benzodiazole-5-carbonyl)piperidin-3-amine] | 1000 to 10000 | 1000 to 5000 | 1000 to 10000 | < 1000
6 | Cc1cc2c(cc1C(=O)N1CCC[C@@H](N)C1)nc(-c1cc3cccnc3n1CC1CC1)n2C [Compound I-103, (3R)-1-{2-[1-(cyclopropylmethyl)-1H-pyrrolo[2,3-b]pyridin-2-yl]-1,6-dimethyl-1H-1,3-benzodiazole-5-carbonyl}piperidin-3-amine hydrochloride] | 10000 to 100000 | > 10000 | 10000 to 100000 | > 10000
7 | COc1cc(C(=O)N2CC[C@]3(CNCCC3(F)F)C2)cc2nc(-c3cc4cccnc4n3CC3CC3)n(C)c12 [Compound I-107] | 10000 to 100000 | > 10000 | 10000 to 100000 | > 10000
8 | COc1cc(C(=O)N2CC[C@@]3(CNCCC3(F)F)C2)cc2nc(-c3cc4cccnc4n3CC3CC3)n(C)c12 [Compound I-108] | 10000 to 100000 | > 10000 | 10000 to 100000 | > 10000
9 | Cn1c(-c2cc3cccnc3n2CC2CC(C)(O)C2)nc2cc(C(=O)N3CCC[C@@H](N)C3)ccc21 (stereo partly drawn) [Compound I-110, 3-[(2-{5-[(3R)-3-Aminopiperidine-1-carbonyl]-1-methyl-1H-1,3-benzodiazol-2-yl}-1H-pyrrolo[2,3-b]pyridin-1-yl)methyl]-1-methylcyclobutan-1-ol] | 10000 to 100000 | > 10000 | 1000 to 10000 | 1000 to 5000
10 | Cn1c(-c2cc3cccnc3n2CC2CC2)nc2cc(C(=O)N3CCC[C@@H](N)C3)cc(C(N)=O)c21 [Compound I-112, 5-[(3R)-3-aminopiperidine-1-carbonyl]-2-[1-(cyclopropylmethyl)-1H-pyrrolo[2,3-b]pyridin-2-yl]-1-methyl-1H-1,3-benzodiazole-7-carboxamide hydrochloride] | 1000 to 10000 | 1000 to 5000 | 1000 to 10000 | 5000 to 10000
11 | COc1cc(C(=O)N2CCC[C@@H](N)C2)cc2nc(-c3cc4cccnc4n3CC3CC(C)(O)C3)n(C)c12 (stereo partly shown) [Compound I-113] | 1000 to 10000 | 5000 to 10000 | 1000 to 10000 | 1000 to 5000
12 | CCn1c(-c2cc3cccnc3n2CC2CC2)nc2cc(C(=O)N3CCC[C@@H](N)C3)cc(OC)c21 [Compound I-119, (3R)-1-{2-[1-(cyclopropylmethyl)-1H-pyrrolo[2,3-b]pyridin-2-yl]-1-ethyl-7-methoxy-1H-1,3-benzodiazole-5-carbonyl}piperidin-3-amine] | < 1000 | < 1000 | < 1000 | < 1000
13 | COc1cc(C(=O)N2CC[C@@H](OC)[C@@H](N)C2)cc2nc(-c3cc4cccnc4n3CC3CC3)n(C)c12 [Compound I-121] | < 1000 | < 1000 | < 1000 | < 1000

Results, then the molecule that gave them:

Row | IC50 (mPAD4; [1]) [nM] | IC50 (mPAD4; read-out: mPAD4 RFMS IC50) [nM] | IC50 (hPAD4; [2]) [nM] | IC50 (hPAD4; read-out: hPAD4 RFMS IC50) [nM] | SMILES
14 | < 1000 | < 1000 | < 1000 | < 1000 | COc1ccc2cc(-c3nc4cc(C(=O)N5CCC[C@@H](N)C5)cc(OC)c4n3CC(F)F)n(CC3CC3)c2n1 [Compound I-94, (3R)-1-{2-[1-(cyclopropylmethyl)-6-methoxy-1H-pyrrolo[2,3-b]pyridin-2-yl]-1-(2,2-difluoroethyl)-7-methoxy-1H-1,3-benzodiazole-5-carbonyl}piperidin-3-amine]
15 | < 1000 | < 1000 | < 1000 | < 1000 | Cn1c(-c2cc3cccnc3n2CC2CC2)nc2cc(C(=O)N3C[C@H](N)C[C@@H](F)C3)cc(OC(F)F)c21 [Compound I-98]
16 | < 1000 | < 1000 | < 1000 | < 1000 | COc1ccc2cc(-c3nc4cc(C(=O)N5CCC[C@@H](N)C5)cc(OC(F)F)c4n3C)n(CC3CC3)c2n1 [Compound I-104, (3R)-1-{2-[1-(cyclopropylmethyl)-6-methoxy-1H-pyrrolo[2,3-b]pyridin-2-yl]-7-(difluoromethoxy)-1-methyl-1H-1,3-benzodiazole-5-carbonyl}piperidin-3-amine]
17 | < 1000 | < 1000 | < 1000 | < 1000 | CCc1ccc2cc(-c3nc4cc(C(=O)N5CCC[C@@H](N)C5)cc(OC)c4n3CC)n(CC3CC3)c2n1 [Compound I-105, (3R)-1-{2-[1-(cyclopropylmethyl)-6-ethyl-1H-pyrrolo[2,3-b]pyridin-2-yl]-1-ethyl-7-methoxy-1H-1,3-benzodiazole-5-carbonyl}piperidin-3-amine]
18 | < 1000 | < 1000 | < 1000 | < 1000 | CCn1c(-c2cc3ccc(OC)nc3n2CC2CC2)nc2cc(C(=O)N3CCC[C@@H](N)C3)cc(OC)c21 [Compound I-106]
19 | < 1000 | < 1000 | < 1000 | < 1000 | COc1ccc2cc(-c3nc4cc(C(=O)N5C[C@H](N)C[C@@H](F)C5)cc(OC(F)F)c4n3C)n(CC3CC3)c2n1 [Compound I-109, (3R,5R)-1-{2-[1-(cyclopropylmethyl)-6-methoxy-1H-pyrrolo[2,3-b]pyridin-2-yl]-7-(difluoromethoxy)-1-methyl-1H-1,3-benzodiazole-5-carbonyl}-5-fluoropiperidin-3-amine]
20 | < 1000 | < 1000 | 1000 to 10000 | 1000 to 5000 | CCOc1cc(C(=O)N2CC(N)CCC2C)cc2nc(-c3cc4cccnc4n3CC3CC3)n(C)c12 (stereo not shown) [Compound I-111]
21 | < 1000 | < 1000 | < 1000 | < 1000 | COc1cc(C(=O)N2CCC[C@@H](N)C2)cc2nc(-c3cc4cccnc4n3CC3CC3)n(CC3CC(C)(O)C3)c12 (stereo partly shown) [Compound I-114]
22 | < 1000 | < 1000 | < 1000 | < 1000 | COc1cc(C(=O)N2CC3CCC2C(N)C3)cc2nc(-c3cc4cccnc4n3CC3CC3)n(C)c12 (stereo not shown) [Compound I-115]
